Biological target: T1, human Keap1 Kelch domain (Homo sapiens, UniProt Q14145)
T1 construct: human Keap1 Kelch domain (residue 321-609, UniProt Q14145); made in house; host or cells: Escherichia coli BL21 (DE3) pLysS, pRSET A vector
Assay: Fluorescence polarization (FP) competition assay, Cy5-Nrf2 peptide probe
Format: binding
Conditions: heterologous competition FP; Keap1 Kelch 14 nM, Cy5-Nrf2 probe 3 nM, 4% DMSO; mean ± SEM
Experimental: The binding affinities between the fluorescent peptide probe Cy5-Nrf2 (SEQ: Cy5-[…]-NH2) and the human Keap1 Kelch domain were determined as Kd values by saturation binding experiments, where increasing concentrations of Keap1 (0-300 nM) were added to a fixed concentration of peptide probe (3 nM). The assay was performed in a 1× HBSTET buffer (10 mM HEPES, 150 mM NaCl, 0.005% Tween20, 3 mM ethylenediaminetetraacetic acid (EDTA), 1 mM TCEP, pH=7.4) using black flat-bottom 384-well plates (Corning Life Sciences, NY), a volume of 30 μL/well, and a final DMSO concentration of 4% or 8%. The assay plate was spun down to ascertain proper mixing and removal of potential air bubbles and incubated for 10-15 min at room temperature before measuring the FP levels on a Safire2 plate reader (Tecan, Mannedorf, Switzerland). The g-factor was adjusted at each experiment so that a series of three blank wells containing probe but no Keap1 Kelch defined the baseline FP value. The Cy5-Nrf2 probe was measured at excitation/emission values of 635:670 nm. The FP values were fitted to the one-site specific binding equation: Y=Bmax×X/(Kd+X), with Bmax being the maximal FP value, X the Keap1 Kelch concentration, and Y the variable FP values. The Kd values were derived from the resulting binding saturation curve as being equal to the Keap1 Kelch concentration, where the curve is half-saturated.
The affinities between nonfluorescent small molecule Keap1 inhibitors and Keap1 Kelch were determined as Ki values in a heterologous competition FP binding assay. This was done by adding increasing concentration of test compound (2-fold serial dilutions, 12 concentrations tested per inhibition curve as duplicates) to a fixed concentration of Keap1 Kelch (14 nM) and the Cy5-Nrf2 peptide probe (3 nM) in the same HBSTET buffer and conditions as described above (final DMSO concentrations were 4%). FP values were fitted to the equation Y=Bottom+(Top−Bottom)/[1+(10^HillSlope×(log IC50−X))], where X is the logarithmic value of compound concentration. Hereby, the IC50 value was obtained, which together with the […] value and probe and Keap1 Kelch concentrations was used to calculate the theoretical competitive inhibition constant, the Ki value. 43 Ki values are shown as mean±SEM (standard error of mean) if based on two or more individual measurements.

T1 sequence (Q14145 321-609): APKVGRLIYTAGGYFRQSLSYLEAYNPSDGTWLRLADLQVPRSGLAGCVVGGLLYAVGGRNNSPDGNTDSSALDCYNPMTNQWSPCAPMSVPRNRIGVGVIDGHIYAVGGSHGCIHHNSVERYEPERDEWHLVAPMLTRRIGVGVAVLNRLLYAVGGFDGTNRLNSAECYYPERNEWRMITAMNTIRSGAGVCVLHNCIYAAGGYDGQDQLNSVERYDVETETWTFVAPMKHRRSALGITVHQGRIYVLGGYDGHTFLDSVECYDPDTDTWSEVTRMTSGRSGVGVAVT

Row | Compound | Ki [µM]
1 | O=C(O)CC(c1ccc2c(c1)OCO2)c1ccc2ccc(OCC(=O)N[C@H]3CC[C@@H](C(F)(F)F)CC3)cc2c1 (stereo partly drawn) [6j, 3-(benzo[d][1,3]dioxol-5-yl)-3-(7-(2-oxo-2-((cis-4-(trifluoromethyl)cyclohexyl)amino)ethoxy)naphthalen-2-yl)propanoic acid] | 0.045 ± 0.001
2 | O=C(O)CC(c1ccc2c(c1)CCO2)c1ccc2ccc(OCC(=O)NC3C=CCCC3)cc2c1 (stereo not shown) [4e, 3-(7-(2-(Cyclohex-2-en-1-ylamino)-2-oxoethoxy)naphthalen-2-yl)-3-(2,3-dihydrobenzofuran-5-yl)propanoic acid] | 0.027 ± 0.004
3 | COc1ccc(C(CC(=O)O)c2ccc3ccc(OCC(=O)NC4CCCCCC4)cc3c2)c(C)c1 (stereo not shown) [2k, 3-(7-(2-(Cycloheptylamino)-2-oxoethoxy)naphthalen-2-yl)-3-(4-methoxy-2-methylphenyl)propanoic acid] | 0.027 ± 0.003
4 | Cc1cc(C)c(C)c(NC(=O)COc2ccc3ccc(CCC(=O)O)cc3c2)c1C [1g, 3-(7-(2-Oxo-2-((2,3,5,6-tetramethylphenyl)amino)ethoxy)naphthalen-2-yl)propanoic acid] | 196 ± 24
5 | O=C(O)CC(c1ccc2ccc(OCC(=O)NC3CCCCCC3)cc2c1)c1cc2c(cc1Cl)OCO2 (stereo not shown) [2z, 3-(6-chlorobenzo[d][1,3]dioxol-5-yl)-3-(7-(2-(cycloheptylamino)-2-oxoethoxy)naphthalen-2-yl)propanoic acid] | 0.009 ± 0.002
6 | Cc1cc2c(cc1C(CC(=O)O)c1ccc3ccc(OCC(=O)NC4CCCCC4)cc3c1)OCO2 (stereo not shown) [3g, 3-(7-(2-(cyclohexylamino)-2-oxoethoxy)naphthalen-2-yl)-3-(6-methylbenzo[d][1,3]dioxol-5-yl)propanoic acid] | 0.018 ± 0.006
7 | Cc1cc2c(cc1C(CC(=O)O)c1ccc3ccc(OCC(=O)NC4C=CCCC4)cc3c1)OCO2 (stereo not shown) [4b, 3-(7-(2-(Cyclohex-2-en-1-ylamino)-2-oxoethoxy)naphthalen-2-yl)-3-(6-methylbenzo[d][1,3]dioxol-5-yl)propanoic acid] | 0.004 ± 0.001
8 | O=C(O)CC(c1ccc2c(c1)CCO2)c1ccc2ccc(OCC(=O)NC3CCCCCC3)cc2c1 (stereo not shown) [2q, 3-(7-(2-(cycloheptylamino)-2-oxoethoxy)naphthalen-2-yl)-3-(2,3-dihydrobenzofuran-5-yl)propanoic acid] | 0.036 ± 0.003
9 | Cc1cc2c(cc1C(CC(=O)O)c1ccc3ccc(OCC(=O)NC4CCCCC4)cc3c1)OCCO2 (stereo not shown) [3q, 3-(7-(2-(cyclohexylamino)-2-oxoethoxy)naphthalen-2-yl)-3-(7-methyl-2,3-dihydrobenzo[b][1,4]dioxin-6-yl)propanoic acid] | 0.015 ± 0.001
10 | CC1(C)Oc2ccc(C(CC(=O)O)c3ccc4ccc(OCC(=O)NC5CCCCC5)cc4c3)cc2O1 (stereo not shown) [3j, 3-(7-(2-(cyclohexylamino)-2-oxoethoxy)naphthalen-2-yl)-3-(2,2-dimethylbenzo[d][1,3]dioxol-5-yl)propanoic acid] | 0.14 ± 0.011
11 | CC(C)CNC(=O)COc1ccc2ccc(C(CC(=O)O)c3ccc4c(c3)OCO4)cc2c1 (stereo not shown) [6c, 3-(benzo[d][1,3]dioxol-5-yl)-3-(7-(2-(isobutylamino)-2-oxoethoxy)naphthalen-2-yl)propanoic acid] | 0.138 ± 0.024
12 | O=C(O)CC(c1ccc2c(c1)OCO2)c1ccc2ccc(OCC(=O)N[C@@H]3C[C@@H]4CC[C@H]3C4)cc2c1 (stereo partly drawn) [6h, 3-(benzo[d][1,3]dioxol-5-yl)-3-(7-(2-(((1S,2R,4R)-bicyclo[2.2.1]heptan-2-yl)amino)-2-oxoethoxy)naphthalen-2-yl)propanoic acid] | 0.019 ± 0.003
13 | O=C(O)CC(c1ccc2c(c1)OCO2)c1cnc2ccc(OCC(=O)NC3CCCCCC3)cc2c1 (stereo not shown) [9c, 3-(benzo[d][1,3]dioxol-5-yl)-3-(6-(2-(cycloheptylamino)-2-oxoethoxy)quinolin-3-yl)propanoic acid] | 0.064
14 | O=C(O)CC(c1ccc2c(c1)OCO2)c1ccc2ccc(OCC(=O)N[C@H]3C[C@@H]4CC[C@H]3C4)cc2c1 (stereo partly drawn) [5a, 3-(benzo[d][1,3]dioxol-5-yl)-3-(7-(2-(((1S,2S,4R)-bicyclo[2.2.1]heptan-2-yl)amino)-2-oxoethoxy)naphthalen-2-yl)propanoic acid] | 0.02 ± 0.003
15 | O=C(O)CC(c1ccc2c(c1)OCCO2)c1ccc2ccc(OCC(=O)NC3CCCCCC3)cc2c1 (stereo not shown) [2s, 3-(7-(2-(cycloheptylamino)-2-oxoethoxy)naphthalen-2-yl)-3-(2,3-dihydrobenzo[b][1,4]dioxin-6-yl)propanoic acid] | 0.015 ± 0.003
16 | CN(C(=O)COc1ccc2ccc(C(CC(=O)O)c3ccc4c(c3)OCO4)cc2c1)C1CCCCCC1 (stereo not shown) [7b, 3-(benzo[d][1,3]dioxol-5-yl)-3-(7-(2-(cycloheptyl(methyl)amino)-2-oxoethoxy)naphthalen-2-yl)propanoic acid] | 0.129 ± 0.009

Row | Compound | Ki [µM]
17 | O=C(O)CC(c1ccc2c(c1)OCO2)c1ccc2ccc(OCC(=O)NC3CCCCCC3)nc2c1 (stereo not shown) [9b, 3-(benzo[d][1,3]dioxol-5-yl)-3-(2-(2-(cycloheptylamino)-2-oxoethoxy)quinolin-7-yl)propanoic acid] | 0.083 ± 0.037
18 | COc1ccc(C(CC(=O)O)c2ccc3ccc(OCC(=O)NC4CCCCC4)cc3c2)cc1 (stereo not shown) [3a, 3-(7-(2-(cyclohexylamino)-2-oxoethoxy)naphthalen-2-yl)-3-(4-methoxyphenyl)propanoic acid] | 0.07 ± 0.003
19 | Cc1ccc(Cl)cc1C(CC(=O)O)c1ccc2ccc(OCC(=O)NC3CCCCC3)cc2c1 (stereo not shown) [3p, 3-(5-Chloro-2-methylphenyl)-3-(7-(2-(cyclohexylamino)-2-oxoethoxy)naphthalen-2-yl)propanoic acid] | 0.234 ± 0.04
20 | COc1ccc(C)c(C(CC(=O)O)c2ccc3ccc(OCC(=O)NC4CCCCC4)cc3c2)c1 (stereo not shown) [3m, 3-(7-(2-(cyclohexylamino)-2-oxoethoxy)naphthalen-2-yl)-3-(5-methoxy-2-methylphenyl)propanoic acid] | 0.15 ± 0.014
21 | COc1ccc(NC(=O)COc2ccc3ccc(CCC(=O)O)cc3c2)cc1 [1e, 3-(7-(2-((4-Methoxyphenyl)amino)-2-oxoethoxy)naphthalen-2-yl)propanoic acid] | 75 ± 10
22 | O=C(O)CC(c1ccc(Cl)cc1)c1ccc2ccc(OCC(=O)NC3CCCCCC3)cc2c1 (stereo not shown) [2c, 3-(4-Chlorophenyl)-3-(7-(2-(cycloheptylamino)-2-oxoethoxy)naphthalen-2-yl)propanoic acid] | 0.294 ± 0.03
23 | O=C(O)CC(c1ccc2c(c1)OCCO2)c1ccc2ccc(OCC(=O)NC3CCCCC3)cc2c1 (stereo not shown) [3l, 3-(7-(2-(cyclohexylamino)-2-oxoethoxy)naphthalen-2-yl)-3-(2,3-dihydrobenzo[b][1,4]dioxin-6-yl)propanoic acid] | 0.029 ± 0.001
24 | COc1cccc(C(CC(=O)O)c2ccc3ccc(OCC(=O)NC4CCCCCC4)cc3c2)c1 (stereo not shown) [2h, 3-(7-(2-(Cycloheptylamino)-2-oxoethoxy)naphthalen-2-yl)-3-(3-methoxyphenyl)propanoic acid] | 0.284 ± 0.03
25 | CCOc1ccc(C(CC(=O)O)c2ccc3ccc(OCC(=O)NC4CCCCCC4)cc3c2)cc1 (stereo not shown) [2e, 3-(7-(2-(Cycloheptylamino)-2-oxoethoxy)naphthalen-2-yl)-3-(4-ethoxyphenyl)propanoic acid] | 0.041 ± 0.005
26 | O=C(O)CCc1ccc2ccc(OCC(=O)NC3CCCCC3)cc2c1 [1a, 3-(7-(2-(Cyclohexylamino)-2-oxoethoxy)naphthalen-2-yl)propanoic acid] | 14 ± 0.8
27 | Cc1c(Cl)cccc1C(CC(=O)O)c1ccc2ccc(OCC(=O)NC3CCCCC3)cc2c1 (stereo not shown) [3e, 3-(3-chloro-2-methylphenyl)-3-(7-(2-(cyclohexylamino)-2-oxoethoxy)naphthalen-2-yl)propanoic acid] | 0.066 ± 0.006
28 | O=C(O)CC(c1ccc2c(c1)OCO2)c1ccc2ncc(OCC(=O)NC3CCCCCC3)cc2c1 (stereo not shown) [9a, 3-(benzo[d][1,3]dioxol-5-yl)-3-(3-(2-(cycloheptylamino)-2-oxoethoxy)quinolin-6-yl)propanoic acid] | 0.522 ± 0.067
29 | COc1ccc(C(CC(=O)O)c2ccc3ccc(OCC(=O)NC4CCCCCC4)cc3c2)cc1 (stereo not shown) [2d, 3-(7-(2-(Cycloheptylamino)-2-oxoethoxy)naphthalen-2-yl)-3-(4-methoxyphenyl)propanoic acid] | 0.032 ± 0.03
30 | O=C(O)CC(c1ccc2c(c1)OC(F)(F)O2)c1ccc2ccc(OCC(=O)NC3C=CCCC3)cc2c1 (stereo not shown) [4f, 3-(7-(2-(Cyclohex-2-en-1-ylamino)-2-oxoethoxy)naphthalen-2-yl)-3-(2,2-difluorobenzo[d][1,3]dioxol-5-yl)propanoic acid] | 0.03 ± 0.002
31 | COc1ccc(C(CC(=O)O)c2ccc3ccc(OCC(=O)NC4CCCCC4)cc3c2)c(C)c1 (stereo not shown) [3b, 3-(7-(2-(cyclohexylamino)-2-oxoethoxy)naphthalen-2-yl)-3-(4-methoxy-2-methylphenyl)propanoic acid] | 0.054

Source: patent US20260193170A1 (University of Copenhagen, priority 2022, published 2026)
